The CheMixHub viscosity set
Where “and” joins values, the source holds several entries; their conditions need not be identical. Equal entries are not always repeated. ± gives the uncertainty stated by the source.

Assay: xn = mol fraction of the nth substance listed

Cc1cccc2ccccc12 + CCCCCCCCCCCC
viscosity (323.15 K, 100 kPa, x1 = 0.382): 1.01 ± 0.042 mPa·s and 1.02 ± 0.042 mPa·s
viscosity (323.15 K, 100 kPa, x1 = 0.699): 1.22 ± 0.052 mPa·s

O=[N+]([O-])c1ccccc1O + Brc1ccccc1
viscosity (303.15 K, 101 kPa, x1 = 0.602): 1.884 ± 0.048 mPa·s
viscosity (308.15 K, 101 kPa, x1 = 0.602): 1.719 ± 0.043 mPa·s
viscosity (308.15 K, 101 kPa, x1 = 0.8579): 2.658 ± 0.068 mPa·s
viscosity (313.15 K, 101 kPa, x1 = 0.602): 1.576 ± 0.04 mPa·s
viscosity (313.15 K, 101 kPa, x1 = 0.8579): 2.366 ± 0.06 mPa·s
viscosity (318.15 K, 101 kPa, x1 = 0.602): 1.46 ± 0.037 mPa·s
viscosity (318.15 K, 101 kPa, x1 = 0.8579): 2.134 ± 0.054 mPa·s
viscosity (323.15 K, 101 kPa, x1 = 0.602): 1.35 ± 0.034 mPa·s
viscosity (323.15 K, 101 kPa, x1 = 0.8579): 1.934 ± 0.049 mPa·s

CC1CCCCC1=O (stereo unspecified) + CCCCN
viscosity (303.15 K, 101.33 kPa, x2 = 0.1214): 1.802 ± 0.049 mPa·s
viscosity (303.15 K, 101.33 kPa, x2 = 0.2017): 1.906 ± 0.052 mPa·s
viscosity (303.15 K, 101.33 kPa, x2 = 0.3249): 1.944 ± 0.053 mPa·s
viscosity (303.15 K, 101.33 kPa, x2 = 0.4512): 1.826 ± 0.05 mPa·s
viscosity (303.15 K, 101.33 kPa, x2 = 0.5524): 1.715 ± 0.047 mPa·s
viscosity (303.15 K, 101.33 kPa, x2 = 0.6849): 1.417 ± 0.039 mPa·s
viscosity (303.15 K, 101.33 kPa, x2 = 0.8025): 1.126 ± 0.031 mPa·s
viscosity (303.15 K, 101.33 kPa, x2 = 0.8938): 0.855 ± 0.024 mPa·s

CC(=O)N(C)C + CC#N
viscosity (303.15 K, 101.33 kPa, x2 = 0.0996): 0.8371 ± 0.011 mPa·s
viscosity (303.15 K, 101.33 kPa, x2 = 0.2019): 0.7966 ± 0.01 mPa·s
viscosity (303.15 K, 101.33 kPa, x2 = 0.2938): 0.7487 ± 0.0097 mPa·s
viscosity (303.15 K, 101.33 kPa, x2 = 0.3974): 0.7001 ± 0.0092 mPa·s
viscosity (303.15 K, 101.33 kPa, x2 = 0.497): 0.6422 ± 0.0086 mPa·s
viscosity (303.15 K, 101.33 kPa, x2 = 0.5983): 0.5843 ± 0.008 mPa·s
viscosity (303.15 K, 101.33 kPa, x2 = 0.7013): 0.5199 ± 0.0073 mPa·s
viscosity (303.15 K, 101.33 kPa, x2 = 0.7983): 0.4568 ± 0.0066 mPa·s
viscosity (303.15 K, 101.33 kPa, x2 = 0.9001): 0.3878 ± 0.0058 mPa·s

CCCCCCCCCO + CCCCCCO
viscosity (298.15 K, 101.8 kPa, x2 = 0.1351): 8.731 ± 0.39 mPa·s
viscosity (298.15 K, 101.8 kPa, x2 = 0.4186): 7.177 ± 0.38 mPa·s
viscosity (298.15 K, 101.8 kPa, x2 = 0.5817): 6.384 ± 0.37 mPa·s
viscosity (298.15 K, 101.8 kPa, x2 = 0.7358): 5.606 ± 0.36 mPa·s
viscosity (298.15 K, 101.8 kPa, x2 = 0.9282): 4.847 ± 0.35 mPa·s
viscosity (308.15 K, 101.8 kPa, x2 = 0.1351): 6.206 ± 0.36 mPa·s
viscosity (308.15 K, 101.8 kPa, x2 = 0.4186): 5.187 ± 0.35 mPa·s
viscosity (308.15 K, 101.8 kPa, x2 = 0.5817): 4.651 ± 0.34 mPa·s
viscosity (308.15 K, 101.8 kPa, x2 = 0.7358): 4.127 ± 0.34 mPa·s
viscosity (308.15 K, 101.8 kPa, x2 = 0.9282): 3.596 ± 0.33 mPa·s
viscosity (318.15 K, 101.8 kPa, x2 = 0.1351): 4.51 ± 0.34 mPa·s
viscosity (318.15 K, 101.8 kPa, x2 = 0.4186): 3.821 ± 0.33 mPa·s
viscosity (318.15 K, 101.8 kPa, x2 = 0.5817): 3.453 ± 0.33 mPa·s
viscosity (318.15 K, 101.8 kPa, x2 = 0.7358): 3.093 ± 0.33 mPa·s
viscosity (318.15 K, 101.8 kPa, x2 = 0.9282): 2.717 ± 0.33 mPa·s

O=[N+]([O-])c1ccccc1O + c1ccncc1
viscosity (303.15 K, 101 kPa, x1 = 0.06767): 0.943 ± 0.009 mPa·s
viscosity (303.15 K, 101 kPa, x1 = 0.1295): 1.081 ± 0.011 mPa·s
viscosity (303.15 K, 101 kPa, x1 = 0.178): 1.211 ± 0.012 mPa·s
viscosity (303.15 K, 101 kPa, x1 = 0.2717): 1.5 ± 0.015 mPa·s
viscosity (303.15 K, 101 kPa, x1 = 0.3836): 1.881 ± 0.019 mPa·s
viscosity (303.15 K, 101 kPa, x1 = 0.4628): 2.15 ± 0.021 mPa·s
viscosity (303.15 K, 101 kPa, x1 = 0.5508): 2.45 ± 0.024 mPa·s
viscosity (303.15 K, 101 kPa, x1 = 0.6529): 2.755 ± 0.027 mPa·s
viscosity (303.15 K, 101 kPa, x1 = 0.7913): 3.145 ± 0.031 mPa·s
viscosity (303.15 K, 101 kPa, x1 = 0.8557): 3.331 ± 0.033 mPa·s
viscosity (313.15 K, 101 kPa, x1 = 0.06767): 0.815 ± 0.008 mPa·s
viscosity (313.15 K, 101 kPa, x1 = 0.1295): 0.93 ± 0.009 mPa·s
viscosity (313.15 K, 101 kPa, x1 = 0.178): 1.03 ± 0.01 mPa·s
viscosity (313.15 K, 101 kPa, x1 = 0.2717): 1.245 ± 0.012 mPa·s
viscosity (313.15 K, 101 kPa, x1 = 0.3836): 1.51 ± 0.015 mPa·s
viscosity (313.15 K, 101 kPa, x1 = 0.4628): 1.711 ± 0.017 mPa·s
viscosity (313.15 K, 101 kPa, x1 = 0.5508): 1.912 ± 0.019 mPa·s
viscosity (313.15 K, 101 kPa, x1 = 0.6529): 2.145 ± 0.021 mPa·s
viscosity (313.15 K, 101 kPa, x1 = 0.7913): 2.411 ± 0.023 mPa·s
viscosity (313.15 K, 101 kPa, x1 = 0.8557): 2.525 ± 0.025 mPa·s

CC(=O)N(C)C + OCCO
viscosity (308.15 K, 101 kPa, x2 = 0.1632): 1.166 ± 0.11 mPa·s
viscosity (308.15 K, 101 kPa, x2 = 0.2752): 1.388 ± 0.13 mPa·s
viscosity (308.15 K, 101 kPa, x2 = 0.4068): 1.611 ± 0.15 mPa·s
viscosity (308.15 K, 101 kPa, x2 = 0.5162): 2.416 ± 0.22 mPa·s
viscosity (308.15 K, 101 kPa, x2 = 0.6269): 3.622 ± 0.32 mPa·s
viscosity (308.15 K, 101 kPa, x2 = 0.7125): 4.662 ± 0.41 mPa·s
viscosity (308.15 K, 101 kPa, x2 = 0.7974): 5.882 ± 0.49 mPa·s
viscosity (308.15 K, 101 kPa, x2 = 0.8652): 7.289 ± 0.58 mPa·s
viscosity (308.15 K, 101 kPa, x2 = 0.9339): 8.916 ± 0.68 mPa·s

O=C([O-])CC(O)(CC(=O)[O-])C(=O)[O-].[Li+].[Li+].[Li+] + O
viscosity (298.15 K, 101 kPa, x1 = 0.004): 1.118 ± 0.053 mPa·s
viscosity (298.15 K, 101 kPa, x1 = 0.007): 1.39 ± 0.065 mPa·s
viscosity (298.15 K, 101 kPa, x1 = 0.01): 1.784 ± 0.084 mPa·s
viscosity (308.15 K, 101 kPa, x1 = 0.004): 0.9013 ± 0.043 mPa·s
viscosity (308.15 K, 101 kPa, x1 = 0.007): 1.112 ± 0.052 mPa·s
viscosity (308.15 K, 101 kPa, x1 = 0.01): 1.415 ± 0.067 mPa·s
viscosity (318.15 K, 101 kPa, x1 = 0.004): 0.7487 ± 0.035 mPa·s
viscosity (318.15 K, 101 kPa, x1 = 0.007): 0.9146 ± 0.043 mPa·s
viscosity (318.15 K, 101 kPa, x1 = 0.01): 1.155 ± 0.054 mPa·s
